“Also recorded” adds a separate entry of the source.
Experiments:
Stability test in plasma = format: in vitro ADME; conditions: 2 μM, mouse plasma, 37° C., 0-1440 min
Method: (§1) SA (2 μM) was incubated with murine S9 (Lot KWB) and Phase I NADPH Regenerating System cofactors for 0-240 minutes. SA was quantified using a Qtrap 3200 mass spectrometer. n=3. (FIG. 7B) SA is stable in mouse plasma. 1 μl SA 2 mM DMSO stock was incubated with 1 ml ACD mouse plasma or saline making 2 μM SW125991 working solution. Vortext well and incubate in 37° C. water bath. At time point 0, 10, 30, 60, 120, 240, 1440 min, SA was quantified using a Qtrap 3200 mass spectrometer. n=3.
1 μl of SA (2 mM DMSO stock) was incubated with 1 ml ACD mouse plasma or saline control to make 2 μM SW125991 working solution. Vortext well and incubate in 37° C. water bath. At time point 0, 10, 30, 60, 120, 240, 1440 min, 100 μl sample was crashed by 200 μl MeOH with IS benzylbenzamide at 15 ng/ml. Centrifuge twice at 13200 rpm for 5 min, and supernatant was injected into LCMS for analysis.

[1] = tested on: human cord blood CD133+ cells; experiment: Ex vivo expansion of human cord blood HSCs, repopulation in NSG mice; format: cell-based; conditions: cord blood CD133+ cells cultured 11 days, 1 μM, 8 weeks post-transplantation
Method: (§2) Mouse BM Lin-Sca-1+Kit+CD34-Flk2-cells were cultured in serum-free Stemspan medium with 10 ng/ml SCF, 20 ng/ml TPO, and indicated concentrations of SA. Cell numbers were counted after 6 days. FIG. 2B The effects of SA on the ex vivo expansion of mouse CD45.1 Percent repopulation of C57BL/6 bone marrow HSCs at 0, 10 nM, 100 nM, and 1 μM for 8 days, measured at 3 weeks, 7 weeks, and 16 weeks post-transplantation. The repopulation of donor mouse CD45.1 HSCs was determined by transplantation into lethally irradiated (1000 rad) CD45.2 C57BL/6 mice. Ten thousand CD45.2 total bone marrow cells were co-transplanted as competitors. n=5. […] The repopulation of human hematopoietic stem cells was determined by transplantation into sublethally irradiated (250 rad) NOD/SCID IL2R gamma^−/− (NSG) mice. n=7.
Cryopreserved human cord blood CD133^+ cells were purchased from AllCells. All of cells were from pooled donors. Purities of CD133^+ cells as analyzed by flow cytometry were higher than 90%. After thawing, the cell viability tested by trypan blue exclusion was higher than 72%. […] Eight weeks after transplantation, bone marrow nucleated cells from transplanted animals were analyzed by flow cytometry for the presence of human cells. Total human hematopoietic cells were determined as CD45/71^+, and human myeloid cells as myeloid CD45/71^+CD15/66b^+.

[2] = Stability test in S9 extract; format: in vitro ADME, mouse; conditions: 2 μM, murine S9, Phase I NADPH cofactors, 0-240 minutes
Method: as §1
SA (2 mM in H2O stock, final concentration in mixture is 2 μM) was incubated with Murine S9 (Lot KWB) fraction and Phase I (NADPH Regenerating System) cofactors for 0-240 minutes. Reactions were quenched with 1 mL (1:1) of methanol containing 0.2% formic acid, and 100 ng/ml IS (IS final conc.=10 ng/ml). Samples were vortexed for 15 seconds, incubated at RT for 10 minutes and spun for 5 minutes at 2400 rpm. Supernatant (1 mL) was then transferred to an eppendorf tube and spun in a table top, chilled centrifuge for 5 minutes at 13.2K rpm. Supernatant (800 μl) was transferred to an HPLC vial (w/out insert). Analyzed by Qtrap 3200 mass spectrometer.

Balb/c mice [3] = experiment: Toxicity in mice, daily injections for 28 days; format: in vivo, mouse; conditions: for toxicity: 0.5 and 1.5 mg daily for four weeks (33- and 100-times the effective amount)
Method: In this experiment, 8-week-old Balb/c mice were given daily injections of SA at doses of 0, 0.5, and 1.5 mg per mouse for 28 days. The body weight and activities of mice were monitored daily.

[4] = tested on: Mouse bone marrow Lin-Sca-1+Kit+CD34-Flk2-cells; experiment: Proliferation of mouse HSCs; format: cell-based; conditions: serum-free Stemspan, 10 ng/ml SCF, 20 ng/ml TPO, cell numbers after 6 days
Method: as §2
Mouse bone marrow Lin-Sca-1+Kit+CD34-Flk2-cells were cultured in serum-free Stemspan medium with 10 ng/ml SCF, 20 ng/ml TPO, and indicated concentrations of SA. Cell numbers were counted after 6 days.

Balb/c mice [5] = experiment: Mouse model of bone marrow failure after chemo- and radio-treatment; format: in vivo
Method: (§3) Balb/c mice were first treated with 100 mg/kg acetylphenylhydrazine and, after 24 hours, were irradiated with 2 Gy. Two days post radiation treatment, the mice were treated with 62.5 mg/kg cyclophosphamide (CY). This treatment is known to induce sublethal damage to HSCs and RBCs. Two days after the CY treatment, the mice were given daily intraperitoneal injections of SA for 4 to 14 days; a range of SA concentrations was evaluated. Blood counts were measured at days 0, 4, and 8. Additionally, bone marrow Lin^−Sca-1^+Kit^+CD34^−Flk2^− (LSKFC) cells that are enriched for HSCs and hematopoietic lineages were quantified at day 14.
as §3, with “The inventors tested the effect of SA on HSCs and RBCs in a mouse bone marrow failure model after chemo- and radio-therapy. In this model, Balb/c mice” for “Balb/c mice”, “for HSCs (Christensen and Weissman, 2001) and hematopoietic” for “for HSCs and hematopoietic”

[6] = tested on: Bone marrow CD45.1 Lin-Sca-1+Kit+Flk2-CD34- cells; experiment: Ex vivo expansion of mouse bone marrow HSCs, repopulation after transplantation; format: cell-based; conditions: cultured 8 days, determined by bone marrow transplantation
Method: as §2
Bone marrow CD45.1 Lin^−Sca-1^+Kit^+Flk2^−CD34^− cells were isolated from 8-12 week old CD45.1 C57BL/6 mice and were plated into wells of a U-bottom 96-well plate (3799; Corning). StemSpan serum-free medium (StemCell Technologies) supplemented with 10 μg/mL heparin (Sigma), 10 ng/mL mouse SCF (R&D Systems), 20 ng/mL mouse TPO (R&D Systems), and 10 ng/mL human FGF-1 (Invitrogen), and indicated concentration of suberoylarginine was used. Cells were cultured at 37° C. in 5% CO2 and the normal level of O2 for 8 days. […]

[7] = 0.5 and 1.5 mg per mouse daily for 28 days

Compound: N=C(N)NCCC[C@H](NC(=O)CCCCCCC(=O)O)C(=O)O [SA, suberoyl arginine]
- stability in plasma (Stability test in plasma): metabolically stable
- ex vivo expansion of human HSCs [1]: supports the ex vivo expansion
- metabolic stability in S9 liver fractions [2]: metabolically stable
- toxicity (Balb/c mice [3]): did not observe any detectable SA toxicity
- toxicity (Balb/c mice [3]; listed as subreoylarginine): no detectable toxicity
- body weight (Balb/c mice [3]; [7]): did not significantly alter
- changes in behavior, activity, hematology, serum chemistry, or urinalysis parameters (Balb/c mice [3]; [7]): did not observe any changes
- histological damage to tissues/organs (Balb/c mice [3]; [7]): no damage was observed
- body weight (Balb/c mice [3]; 0.5 and 1.5 mg per mouse daily for 28 days, listed as suberoylarginine): No significant change
- proliferation of mouse HSCs [4]: promoted the proliferation; also recorded: promotes proliferation
- increase of phenotypic bone marrow HSCs (Balb/c mice [5]; 15 μg of SA per mouse (~0.7 mg/kg) per day for 14 days): ~40%
- increase of hematocrit relative to animals not treated (Balb/c mice [5]; day 8): 25-30%
- increase of hemoglobin relative to animals not treated (Balb/c mice [5]; day 8): 25-30%
- increase of level of RBCs relative to animals not treated (Balb/c mice [5]; day 8): 25-30%
- stimulation of hematopoietic recovery by route (Balb/c mice [5]; iv or intraperitoneal (ip) administration): works efficiently
- effect on RBC recovery compared with EPO (Balb/c mice [5]; same mouse model, SA 15 μg, EPO 120 U/kg): comparable to that of EPO
- ex vivo expansion of mouse HSCs [6]: supports the ex vivo expansion

Source: patent US11013704B2, “Compounds supports hematopoietic stem cells and red blood cells” (The Board of Regents of the University of Texas System, priority 2014, dated 2021)
